Assay results published in US9993462B2, “Hydantoin derivative-containing pharmaceutical composition” (Chugai Seiyaku Kabushiki Kaisha, priority 2014, dated 2018).

Assays:
[1] = test system: rabbit articular chondrocytes; assay: Suppression of terminal differentiation of rabbit articular chondrocytes (alkaline phosphatase and alizarin red staining); format: cell-based; conditions: BMP-2 100 ng/mL, Compound 7 10^−7 to 10^−5 mol/L, PTH(1-34) 10^−10 to 10^−7 mol/L
Procedure: NZW rabbits (4-week old, Oriental Yeast Co., Ltd.) were euthanized, and then the articular cartilage of the lower leg bone was collected, and transferred to a 50-mL test tube (Nippon Becton Dickinson Company). PBS (Nacalai Tesque, Inc.) containing 1% trypsin (Wako Pure Chemical Industries, Ltd.) was added to this, and the soft tissue was digested at 37° C. for one hour. This was followed by centrifugation at 1,200 rpm for five minutes, then supernatant was removed and PBS(−) was added to suspend the cartilage tissue. This was centrifuged at 1,200 rpm for five minutes, followed by removal of the supernatant, and washed three times by suspending in PBS(−). This was centrifuged at 1,200 rpm for five minutes, and then the cell pellet was digested by treatment with DMEM (Life Technologies Japan, Ltd.) containing 0.2% Type II collagenase (CLS-2, Worthington Biochemical Corp.) at 37° C. for three hours. Fetal bovine serum (Life Technologies Japan, Ltd.) was added at 10% v/v to stop the reaction, and this was vigorously pipetted using a 10-mL pipette (Nippon Becton Dickinson Company) to isolate the chondrocytes. This was centrifuged at 1,200 rpm for five minutes, followed by removal of the supernatant, and washed three times by suspending in 10% FCS-containing DMEM, and the chondrocytes were seeded at 1×10^4 cells/well on an I-type collagen-coated 96-well culture plate (AGC TECHNO GLASS CO., LTD.). Medium exchange was performed three times a week; and after the cells reached confluency, they were cultured in DMEM containing 100 μg/mL L-ascorbic acid phosphate magnesium salt n-hydrate (Wako Pure Chemical Industries, Ltd.), 10 mmol/L β-glycerophosphate pentahydrate (Wako Pure Chemical Industries, Ltd.) and 10% FCS. The following conditions were used to culture the cells, and alkaline phosphatase staining (cultured for 14 days) and alizarin red staining (cultured for 21 days) were performed to evaluate terminal differentiation of chondrocytes.
Alkaline phosphatase staining was performed by discarding the medium, then washing the chondrocytes once with 200 mmol/L Tris-HCl pH8.2 buffer, staining the cells according to the protocol supplied with the alkaline phosphatase staining kit (Vector Red Alkaline Phosphatase Substrate Kit I, Vector Laboratories, Inc.), and taking photographs with an inverted microscope (Nikon Corporation) (4× objective).
Alizarin red staining was performed by discarding the medium, then washing the chondrocytes twice with PBS, fixing the cells using 100% ethanol (Wako Pure Chemical Industries Ltd.) for 15 minutes, discarding the ethanol, and then staining with 1% alizarin red S (Wako Pure Chemical Industries Ltd.) for 15 minutes, followed by washing with distilled water; and photographs were taken with an inverted microscope.

normal rats = assay: Growth plate cartilage histology after four weeks of repeated oral administration to normal rats; format: in vivo, rat
Procedure: Female RccHan: WIST rats obtained from Japan Laboratory Animals Inc. were acclimated for at least one week under standard laboratory conditions of 20° C. to 26° C. and 30% to 70% humidity, and then used in experiments. The rats had free access to tap water and a standard rodent diet (CE-2, Clea Japan Inc.) containing 1.1% calcium, 1.0% phosphoric acid, and 250 IU/100 g vitamin D3.
After body weight measurement for the six-week old rats, they were divided into groups so that the average body weight of each group of ten rats would be even. From the day following group division, all rats were administered once a day repeatedly for four weeks. The solvent (vehicle) was orally administered to the Vehicle-Control group. To the Compound 7-6 mg/kg group, Compound 7-60 mg/kg group, and Compound 7-600 mg/kg group, Compound 7 suspended in the vehicle was administered orally at a dose of 6 mg/kg, 60 mg/kg, and 600 mg/kg, respectively. For all groups, the volume of administration was 2 mL/kg. Propylene glycol (special grade, Kanto Chemical Co., Inc.) was used for the vehicle. The rats were euthanized under anesthesia one day after the final administration by collecting blood from the abdominal aorta, and then autopsy was performed to collect the femur. The femur was fixed using a 10% neutral buffered formalin solution, and after demineralization, samples of paraffin-embedded tissue sections (hematoxylin-eosin stained) were prepared. Distal ends of the femur of the produced samples were observed histopathologically under a light microscope.

human PTH1R = target: T1, human PTH1R (Homo sapiens, UniProt Q03431); assay: In vitro cAMP signal activity via the human PTH1R (HKRK-B7 cells); format: cell-based; conditions: concentration at 20% cAMP signaling activity, human PTH(1-34) at 100 nM = 100%
T1 construct: expressed in transfected cells; host or cells: HKRK-B7 (LLC-PK1 porcine kidney cells stably expressing human PTH1R)
T1 sequence (Q03431 27-593): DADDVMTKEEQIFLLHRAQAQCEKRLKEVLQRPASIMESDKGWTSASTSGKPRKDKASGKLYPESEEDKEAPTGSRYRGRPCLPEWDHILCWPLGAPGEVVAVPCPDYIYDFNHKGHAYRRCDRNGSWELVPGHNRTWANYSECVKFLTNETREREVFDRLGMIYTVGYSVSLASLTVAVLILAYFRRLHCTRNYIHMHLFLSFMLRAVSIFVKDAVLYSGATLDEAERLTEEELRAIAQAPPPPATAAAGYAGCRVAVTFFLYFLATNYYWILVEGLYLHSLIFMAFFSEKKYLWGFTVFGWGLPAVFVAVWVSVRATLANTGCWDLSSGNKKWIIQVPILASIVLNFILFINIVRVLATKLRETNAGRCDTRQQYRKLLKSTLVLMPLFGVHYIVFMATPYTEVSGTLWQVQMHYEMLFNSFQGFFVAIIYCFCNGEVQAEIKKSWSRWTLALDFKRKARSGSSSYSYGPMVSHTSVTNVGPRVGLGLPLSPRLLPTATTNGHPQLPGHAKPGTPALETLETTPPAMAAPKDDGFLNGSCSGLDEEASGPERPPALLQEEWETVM
Procedure: Human PTH(1-34) and calcitonin were purchased from Peptide Institute, Inc. (Osaka, Japan), dissolved in 10 mM acetic acid to 1 mM and stored in a −80° C. freezer.
Cells were cultured in Dulbecco's modified Eagle's medium (DMEM) supplemented with 10% fetal bovine serum (Hyclone), 100 units/ml penicillin G and 100 μg/ml streptomycin sulfate (Invitrogen Corp) at 37° C. in a humidified atmosphere containing 5% CO2.
cAMP signal transduction analysis utilized LLC-PK1 cells not expressing the PTH1R, and HKRK-B7 cells, that is, LLC-PK1 cells overexpressing the human PTH1R at 9.5×10^5 receptors/cell (Takasu et al., J. Bone. Miner. Res. 14:11-20, 1999).
HKRK-B7 or LLC-PK1 cells were seeded into a 96-well plate at 1×10^5 cells/well and incubated overnight. On the following day, 50 μl of cAMP assay buffer (DMEM, 2 mM IBMX, 0.2 mg/ml bovine serum albumin, 35 mM Hepes-NaOH, pH 7.4) containing human PTH(1-34) or each compound was added and the plate was placed in a 37° C. incubator. The cells were incubated for 20 minutes. After removing the medium, the cells were washed with 100 μl of cAMP assay buffer once. The plate was placed on dry ice powder to freeze the cells and then removed from the dry ice. The cells were lysed with 40 μl of 50 mM HCl and frozen again on dry ice. The amount of intracellular cAMP produced was measured using a commercially available cAMP EIA kit (Biotrack cAMP EIA system, GE health care).
Analyses were performed using a variable gradient S-shaped dose-response curve equation.

[2] = test system: model rabbits with partially removed meniscus; assay: Model rabbits with partially removed meniscus (osteoarthritis model), lesion area of articular cartilage; format: in vivo, rabbit; conditions: continuous administration to the knee joint by osmotic pump, 3.0 or 30 μg/mL, 14 days after surgery
Text: Twelve-week old male NZW rabbits (Oriental Yeast Co., Ltd.) were acclimated for five days, and then under isoflurane anesthesia, the lateral skin of the left knee joint was incised and the lateral collateral ligament and the sesamoid ligament were surgically removed to expose the lateral meniscus. The center of the lateral meniscus was excised at a width of 3 to 4 mm to produce an osteoarthritis model (Kikuchi T et al., Osteoarth Cart 1999; 4(2): 99-110). The tips of the three polyethylene tubes (PE60, Nippon Becton Dickinson Company) connected to three osmotic pumps (2ML1, Durect, Road Cupertino, Calif., US) that were embedded subcutaneously in the left femur were placed into the joint, and the drug solution was continuously administered to the knee joint. Each osmotic pump was filled with any of 1) vehicle control (50% dimethyl sulfoxide/50% physiological saline v/v); 2) Compound 7 at 3.0 μg/mL; or 3) Compound 7 at 30 μg/mL. […] Images of the surface structure of the lower leg bone were taken on a digital microscope (VHX-2000, Keyence Corporation), the area of the Indian ink-positive lesion site and the area of the entire lateral condyle were determined, and the proportion of the lesion site occupying the entire lateral condyle was calculated (FIG. 6).

[3] = 60 mg/kg oral once a day for four weeks, 10 per group
[4] = 600 mg/kg oral once a day for four weeks, 10 per group

- EC20 (human PTH1R): 1.1 µM
Structure (SMILES): Cc1cc(N2C(=O)NC(=O)C2(C)C)cc(C)c1CCS(=O)(=O)N1CCC2(CC1)N=C(c1ccc(OC(F)(F)F)cc1)NC2=O [Compound 7, 1-(3,5-dimethyl-4-(2-((4-oxo-2-(4-(trifluoromethoxy)phenyl)-1,3,8-triazaspiro[4.5]deca-1-en-8-yl)sulfonyl)ethyl)phenyl)-5,5-dimethylimidazolidine-2,4-dione]
- alkaline phosphatase activity (alkaline phosphatase staining) ([1]; cultured for 14 days): suppressed alkaline phosphatase activity in a concentration-dependent manner
- alizarin red staining property (calcification) ([1]; cultured for 21 days): suppressed the alizarin staining property in a concentration-dependent manner
- Number of cases in which growth plate cartilage thickening was observed, Grade 1 (normal rats; [3]): 5
- Number of cases in which growth plate cartilage thickening was observed, Grade 2 (normal rats; [3]): 3
- Number of cases in which growth plate cartilage thickening was observed, Overall (normal rats; [3]): 8
- Number of cases in which growth plate cartilage thickening was observed, Grade 3 (normal rats; [4]): 1
- Number of cases in which growth plate cartilage thickening was observed, Grade 4 (normal rats; [4]): 9
- Number of cases in which growth plate cartilage thickening was observed, Overall (normal rats; [4]): 10
- thickening of the femoral growth plate cartilage in comparison to the Vehicle-Control group (in words) (normal rats; 6, 60, 600 mg/kg oral once a day for four weeks): dose-dependent thickening
- width of a representative growth plate cartilage (normal rats; one individual of the 600 mg/kg group, from the tissue image of FIG. 8 (Vehicle-Control individual approximately 390 μm)): approximately 2940 μm
- area of the lesion site in the articular cartilage of the lower leg bone [2]: reduce the area of the lesion site in a dose-dependent manner
